Experimental data taken from US20130123248A1, “PHARMACOLOGICAL MODULATION OF POSITIVE AMPA RECEPTOR MODULATOR EFFECTS ON NEUROTROPHIN EXPRESSION” (The Regents of the University of California, priority 2006, published 2013).
Entries after “also recorded” stand apart in the source; their conditions may differ.

How the values were obtained:
GluR2 mRNA = GluR2 mRNA in situ hybridization in hippocampal slice cultures; type: cell-based, rat; conditions: 48 h
GluR1 mRNA = GluR1 mRNA in situ hybridization in hippocampal slice cultures; type: cell-based, rat; conditions: 48 h
mature BDNF protein = test: Western blot for mature BDNF protein in organotypic hippocampal cultures; type: cell-based, rat; conditions: 24 h; CX614 50 μM
Experimental: Cultured hippocampal slices were prepared from rat pups (9 d postnatal) essentially as described by Lauterborn et al. (Lauterborn et al., 2000, J Neurosci 20(1):8-21). Slices were explanted onto Millicel-CM biomembrane inserts (Millipore, Bedford, Mass.; 6 slices/membrane) in a 6-well culture cluster plate (Corning, Cambridge, Mass.) containing sterile media (1 ml/well) consisting of minimum essential media, 30 mM dextrose, 30 mM HEPES, 5 mM Na2HCO3, 3 mM glutamine, 0.5 mM ascorbic acid, 2 mM CaCl2, 2.5 mM MgSO4, 1 mg/l insulin and 20% horse serum (pH 7.2; all reagents from Sigma, St. Louis, Mo.) and maintained for 10-18 d in a humidified incubator at 37° C. in 5% CO2. Media was changed three times/week. […]
For protein determinations, drug-treated and vehicle-treated hippocampal slice cultures were homogenized in RIPA (Radio-Immunoprecipitation Assay) buffer containing 10 mM Tris, pH 7.2, 158 mM NaCl, 1 mM EDTA, 0.1% SDS, 1% sodium deoxycholate, 1% triton-X, Complete Protease Inhibitor Cocktail (Roche Diagnostics; Indianapolis, Ind.), and Phosphatase Inhibitor Cocktails 1 and 2 (P2850 and 5726, Sigma), normalized for protein content using the Bio-Rad protein assay, and analyzed by Western blot analysis. […] Binding of anti-BDNF antibodies to BDNF was detected by enhanced chemiluminescence. Band densities were quantified using ImageQuant software (Molecular Dynamics, Sunnyvale, Calif.). […]

BDNF mRNA = BDNF mRNA in situ hybridization in cultured rat hippocampal slices; type: cell-based; conditions: for hybridization to BDNF mRNA, principal hippocampal cell layers, entorhinal cortex, neocortex: CX614 50 μM
Experimental: Cultured hippocampal slices were prepared from rat pups (9 d postnatal) essentially as described by Lauterborn et al. (Lauterborn et al., 2000, J Neurosci 20(1):8-21). Slices were explanted onto Millicel-CM biomembrane inserts (Millipore, Bedford, Mass.; 6 slices/membrane) in a 6-well culture cluster plate (Corning, Cambridge, Mass.) containing sterile media (1 ml/well) consisting of minimum essential media, 30 mM dextrose, 30 mM HEPES, 5 mM Na2HCO3, 3 mM glutamine, 0.5 mM ascorbic acid, 2 mM CaCl2, 2.5 mM MgSO4, 1 mg/l insulin and 20% horse serum (pH 7.2; all reagents from Sigma, St. Louis, Mo.) and maintained for 10-18 d in a humidified incubator at 37° C. in 5% CO2. Media was changed three times/week. All experiments with the […]® (Cortex Pharmaceuticals) and mGluR5 antagonist (gift from FRAXA Research Foundation) began on days 11-12 in culture and were performed essentially as described by Lauterborn et al. (Lauterborn et al., 2000, J Neurosci 20(1):8-21) and Huber et al. (Huber et al., 2002, Proc Natl Acad Sci USA 99(11):7746-50). […]® were dissolved in 100% dimethylsulfoxide (DMSO; Sigma) and stored at -20° C. MPEP was dissolved in 100% DMSO. […] For controls, cultures were either untreated or treated with equivalent concentrations of vehicle (i.e., DMSO at final concentrations of 1:2,000-1:10,000). […] The cRNA to BDNF exon V was generated from PvuII-digested recombinant plasmid pRl 112-8 (Isackson et al., 1991, Neuron 6:937-948), yielding a 540 base length probe with 384 bases complementary to BDNF exon V-containing mRNA (Timmusk et al., 1993, Neuron 10:475-489). In situ hybridization was performed essentially as described by Lauterborn et al. (Lauterborn et al., 2000, J Neurosci 20(1):8-21; Lauterborn et al., 1994, Mol Cell Neurosci 5:46-62). Briefly, for in situ hybridization analyses, treatments were terminated by slice fixation with 4% paraformaldehyde in 0.1 M phosphate buffer, pH 7.2 (PPB). Cultures were re-sectioned parallel to the broad explant surface, slide-mounted, and processed for the in situ hybridization localization of BDNF mRNA using the ^35S-labeled BDNF cRNA probe described above. Following hybridization, the tissue was processed for film (Kodak Biomax) autoradiography. Quantification of in situ hybridization was performed essentially as described by Lauterborn et al. (Lauterborn et al., 2000, J Neurosci 20(1):8-21). Briefly, for quantification of in situ hybridization, hybridization densities were measured from film autoradiograms, with labeling densities calibrated relative to film images of ^14C-labeled standards (μCi/g), using the AIS system (Imaging Research Inc.). Significance was determined using the two-way ANOVA followed by Student-Newman-Keuls (SNK) or Student's t tests for individual comparisons.

mGluR5 = mGluR5 (Homo sapiens, UniProt P41594); conditions: cited from earlier work
[1] = tested on: rat fear-potentiated startle model of anxiety; conditions: cited from earlier work
[2] = CX614 (20 μM in FIG. 6 legend, 50 μM in Example 6), MPEP 50 μM or both

Sequence of mGluR5 (P41594 21-1212): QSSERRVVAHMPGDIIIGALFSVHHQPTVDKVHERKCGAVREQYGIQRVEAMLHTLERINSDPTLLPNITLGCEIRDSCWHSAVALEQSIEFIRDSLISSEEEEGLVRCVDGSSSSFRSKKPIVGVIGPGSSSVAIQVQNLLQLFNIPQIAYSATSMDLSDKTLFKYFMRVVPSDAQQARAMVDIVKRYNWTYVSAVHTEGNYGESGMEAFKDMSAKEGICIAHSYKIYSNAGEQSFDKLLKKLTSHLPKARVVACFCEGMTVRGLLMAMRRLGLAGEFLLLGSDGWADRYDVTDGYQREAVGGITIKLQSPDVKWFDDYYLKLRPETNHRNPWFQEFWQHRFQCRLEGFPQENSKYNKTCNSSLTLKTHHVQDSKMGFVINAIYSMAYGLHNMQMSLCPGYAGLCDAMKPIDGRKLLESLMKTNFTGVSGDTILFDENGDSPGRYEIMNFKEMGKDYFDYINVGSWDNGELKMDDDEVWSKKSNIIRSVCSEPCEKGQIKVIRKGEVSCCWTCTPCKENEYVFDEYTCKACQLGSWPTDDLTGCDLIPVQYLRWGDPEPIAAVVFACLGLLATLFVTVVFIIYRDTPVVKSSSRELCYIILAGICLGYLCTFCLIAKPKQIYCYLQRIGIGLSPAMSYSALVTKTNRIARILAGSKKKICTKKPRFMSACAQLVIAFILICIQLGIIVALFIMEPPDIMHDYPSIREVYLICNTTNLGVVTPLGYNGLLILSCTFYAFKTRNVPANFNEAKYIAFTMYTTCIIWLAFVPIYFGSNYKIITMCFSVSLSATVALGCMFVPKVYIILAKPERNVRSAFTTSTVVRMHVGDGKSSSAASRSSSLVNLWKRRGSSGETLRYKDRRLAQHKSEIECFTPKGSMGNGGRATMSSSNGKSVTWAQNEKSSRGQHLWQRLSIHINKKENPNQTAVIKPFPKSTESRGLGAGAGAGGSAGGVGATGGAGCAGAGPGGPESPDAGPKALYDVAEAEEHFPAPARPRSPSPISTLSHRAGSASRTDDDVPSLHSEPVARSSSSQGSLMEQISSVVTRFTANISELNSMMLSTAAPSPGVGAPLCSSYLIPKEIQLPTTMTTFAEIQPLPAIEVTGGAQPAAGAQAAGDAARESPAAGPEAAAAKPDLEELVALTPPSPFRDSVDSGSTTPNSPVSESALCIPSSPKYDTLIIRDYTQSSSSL

With `O=C1c2cc3c(cc2OC2CCCN12)OCCO3` (stereo not shown) [CX614, 2H,3H,6aH-pyrrolidino[2″,1″-3′,2′]1,3-oxazino[6′,5′-5,4]benzo[e]1,4-dioxan-10-one] the “reduction of GluR2 mRNA levels, CA1 stratum pyramidale” value (GluR2 mRNA; CX614 20 μM (FIG. 6 legend)) was roughly 50%, the “reduction of GluR2 mRNA levels, CA1 pyramidal cell layer, compared to control” value (GluR2 mRNA; CX614 50 μM (Example 6)) was 40-45% and the “reduction of GluR1 mRNA levels, CA1 stratum pyramidale” value (GluR1 mRNA; CX614 20 μM (FIG. 6 legend)) was 40%. The “reduction of GluR1 mRNA levels, CA1 pyramidal cell layer, compared to control” value (GluR1 mRNA; CX614 50 μM (Example 6)) was 40-45%, the “mature BDNF protein levels above control levels” value (mature BDNF protein) was 133% and the “BDNF cRNA labeling, granule cells” value (BDNF mRNA; 3 h, 10 μM CX614) was “modest increase”. For the same compound, the “BDNF mRNA levels in CA1 stratum pyramidale, effect in words” value (BDNF mRNA; 3 h, CX614 50 μM with or without MPEP 50 μM) was “small but non-significant increased”, the “increase in BDNF mRNA, hippocampal granule cells (stratum granulosum)” value (BDNF mRNA; 3 h, CX614 50 μM with or without MPEP 50 μM, vs control) was 6.5 fold and the “BDNF mRNA, granule cells” value (BDNF mRNA; 3 h, CX614 10, 20 or 50 μM) was “increased by all three doses”. For the same compound, the “BDNF mRNA, pyramidal cells of CA1 and CA3” value (BDNF mRNA; 3 h, CX614 10, 20 or 50 μM) was “only increased with the 50 μM concentration; also recorded: only 50 μM CX614 elicited significant increases”, the “BDNF cRNA labeling, granule cells” value (BDNF mRNA; 3 h, higher doses of CX614 (20, 50 μM)) was “more dramatic increases” and the “BDNF mRNA levels, CA1 pyramidal cells” value (BDNF mRNA; 24 h, CX614 20 μM with or without MPEP 50 μM) was “small but non-significant increase”. For the same compound, the “hybridization to BDNF mRNA, principal hippocampal cell layers, entorhinal cortex, neocortex” value (BDNF mRNA; 6 h) was “increased; also recorded: markedly elevated” and the “hybridization to BDNF mRNA, principal hippocampal cell layers, entorhinal cortex, neocortex” value (BDNF mRNA; 24 h continuous treatment) was “still elevated above control densities; also recorded: begin to decline”.
In the case of `C=Cc1cncc(C#Cc2csc(C)n2)c1` [Iso et al. compound 59, 3-[(2-methyl-4-thiazoly)ethynyl]-5-vinylpyridine], the “antagonistic potency relative to MTEP” value (mGluR5) is given as 230 times.
For `Cc1cccc(C#Cc2ccccc2)n1` [MPEP, 2-methyl-6-(phenylethynyl)pyridine], the “GluR2 mRNA levels, CA1, effect in words” value (GluR2 mRNA; [2]) was “no significant effect; also recorded: small but non-significant increase”, the “GluR1 mRNA levels, CA1, effect in words” value (GluR1 mRNA; [2]) was “no significant effect” and the “BDNF mRNA levels in the granule cell layer / any field, effect in words” value (BDNF mRNA; 3 h, MPEP 50 μM alone) was “unaffected; also recorded: no effect in any field”.
In the case of `Cc1nc(C#Cc2cccnc2)cs1` [MTEP, 3-[(2-methyl-1,3-thiazol-4-yl)ethynyl]pyridine], the “potency relative to MPEP” value [1] is given as 5 fold.
